From patent US20220324835A1 (Nurix Therapeutics, Inc., priority 2018, published 2022)

System: T-cells
Experiment: In vivo activity: CD25 expression on CD4+ or CD8+ T-cells of mice stimulated with anti-CD3 antibody
Details: 2 μg anti-CD3 antibody, 24 hours
Procedure: A method of determining the pharmacodynamic profile of Cbl-b inhibitors was performed by dosing strains of mice with competent immune systems such as C57BL/6 or BALB/c with a Cbl-b inhibitor. The Cbl-b inhibitor was dissolved in a suitable formulation and administered by one of various routes such as intravenous (IV), intraperitoneal (IP), subcutaneous (SC), or oral (PO), at a suitable dose level and frequency (e.g. twice per day BID or thrice per day TID) as informed by prior pharmacokinetic and tolerability studies. Following administration of the Cbl-b inhibitor, T-cells and indirectly other immune cells (e.g. via cytokine production) were stimulated in vivo by administration of an anti-CD3 antibody or antigen-binding fragment thereof in PBS at defined amounts such as 2 μg or 10 μg per animal by routes such as IV or IP (See Hirsh et al., J. Immunol., 1989; Ferran, et al., Eur. J. Immunol., 1990). Additional study control arms included groups of mice treated with a vehicle formulation alone (i.e., formulation without the Cbl-b inhibitor and anti-CD3 antibody), a formulation containing the Cbl-b inhibitor alone, a formulation containing the anti-CD3 antibody alone, PBS alone, or combinations of these agents. The level of immune activation was then assessed by analysis of plasma cytokine levels and/or expression of activation markers on immune cells (e.g. T-cells). Blood or lymphoid organs (e.g. spleen) were collected at defined time points (e.g. 8 hours or 24 hours). Blood samples were processed to collect plasma for determination of cytokine levels using standard methods known in the art. Cytokines measured included IL-2, IFNγ, and TNFα. Additional blood samples and lymphoid tissues were processed for flow cytometric analysis of immune cells (e.g. T-cells) using standard methods to determine expression of cell type-specific markers and activation markers such as CD25 and/or CD69. Augmentation of immune stimulation by Cbl-b inhibitor administration was assessed by comparing the relative concentrations of cytokines in plasma, or the expression levels of activation markers on immune cells between appropriate groups (e.g. mice treated with Cbl-b inhibitor and 2 μg anti-CD3 antibody versus mice treated with vehicle and 2 μg anti-CD3 antibody).
Cbl-b inhibitors were tested to determine their ability to induce or enhance the level of cytokines (e.g. IL-2, IFNγ, and TNFα) in blood obtained from treated mice stimulated with an anti-CD3 antibody, which is indicative of modulation of the immune response. Cbl-b inhibitors were also tested to determine their ability to induce or enhance the expression of cell surface markers on T-cells (e.g. CD25 and/or CD69) isolated from treated mice stimulated with an anti-CD3 antibody, which is indicative of modulation of the immune response.
Readouts were reported as fold change over baseline. The fold change was calculated from the mean value of mice treated with Cbl-b inhibitor and 2 μg anti-CD3 antibody, with the baseline defined as the mean value of mice treated with vehicle and 2 μg anti-CD3 antibody. Increases in the percentage of cells with surface expression of CD25 on CD4+ T-cells or CD8+ T-cells greater than 1.5-fold over baseline at 24 hours were considered a positive response. Increases in the plasma concentration of IL-2, IFNγ, and TNFα greater than 1.5-fold over baseline at 8 hours post-stimulation were also considered a positive response (Table 8). Fold changes were ranked into bins according to their readouts as follows: A indicates >2.50, B indicates 2.01-2.50, C indicates 1.51-2.00, D indicates 1.00-1.50, and E indicates <1.00.

SMILES	CD4+ T-cell % CD25+ (45 mpk PO BID)	CD8+ T-cell % CD25+ (45 mpk PO BID)	CD4+ T-cell % CD25+ (90 mpk PO BID)	CD8+ T-cell % CD25+ (90 mpk PO BID)	CD4+ T-cell % CD25+ (180 mpk PO BID)	CD8+ T-cell % CD25+ (180 mpk PO BID)	CD4+ T-cell % CD25+ (90 mpk IP BID)	CD8+ T-cell % CD25+ (90 mpk IP BID)	CD4+ T-cell % CD25+ (45 mpk IP BID)	CD8+ T-cell % CD25+ (45 mpk IP BID)	CD4+ T-cell % CD25+ (135 mpk PO BID)	CD8+ T-cell % CD25+ (135 mpk PO BID)
C[C@H](c1cc2c(c(C(F)(F)F)c1)CN(c1cccc(C3([C@H](F)c4nncn4C)COC3)c1)C2=O)N1CCC2(CC2)C1 (stereo in doubt) [Example 575, 6-((R)-1-(5-Azaspiro[2.4]heptan-5-yl)ethyl)-2-(3-(3-((S)-fluoro(4-methyl-4H-1,2,4-triazol-3-yl)methyl)oxetan-3-yl)phenyl)-4-(trifluoromethyl)isoindolin-1-one]	C (C indicates 1.51-2.00)	D (D indicates 1.00-1.50)	A (A indicates >2.50)	C (C indicates 1.51-2.00)	A (A indicates >2.50)	C (C indicates 1.51-2.00)	–	–	–	–	–	–
C[C@H](Cc1nncn1C)c1cccc(NC(=O)c2cccc(C(F)(F)F)n2)c1 [Compound 183a, (R)-N-(3-(1-(4-methyl-4H-1,2,4-triazol-3-yl)propan-2-yl)phenyl)-6-(trifluoromethyl)picolinamide]	–	–	–	–	–	–	D (D indicates 1.00-1.50)	D (D indicates 1.00-1.50)	–	–	–	–
C[C@H](Cc1nncn1C)c1cccc(NC(=O)c2cc(C3CC3)cc(C(F)(F)F)n2)c1 [Compound 191, (R)-4-cyclopropyl-N-(3-(1-(4-methyl-4H-1,2,4-triazol-3-yl)propan-2-yl)phenyl)-6-(trifluoromethyl)picolinamide]	–	–	D (D indicates 1.00-1.50)	D (D indicates 1.00-1.50)	B (B indicates 2.01-2.50)	D (D indicates 1.00-1.50)	–	–	C (C indicates 1.51-2.00)	D (D indicates 1.00-1.50)	D (D indicates 1.00-1.50)	D (D indicates 1.00-1.50)
Cc1cc(C(=O)Nc2cccc([C@H](C)Cc3nncn3C)c2)nc(C2CC2)n1 [Compound 195, (R)-2-cyclopropyl-6-methyl-N-(3-(1-(4-methyl-4H-1,2,4-triazol-3-yl)propan-2-yl)phenyl)pyrimidine-4-carboxamide]	–	–	D (D indicates 1.00-1.50)	D (D indicates 1.00-1.50)	C (C indicates 1.51-2.00)	D (D indicates 1.00-1.50)	–	–	–	–	D (D indicates 1.00-1.50)	D (D indicates 1.00-1.50)
C[C@H](Cc1nncn1C)c1cccc(N2Cc3c(cccc3C(F)(F)F)C2=O)c1 [Compound 255a, (R)-2-(3-(1-(4-methyl-4H-1,2,4-triazol-3-yl)propan-2-yl)phenyl)-4-(trifluoromethyl)isoindolin-1-one]	–	–	–	–	–	–	B (B indicates 2.01-2.50)	D (D indicates 1.00-1.50)	–	–	D (D indicates 1.00-1.50)	E (E indicates <1.00)
Cc1cc(C(=O)Nc2cccc(C3(Cc4nncn4C)COC3)c2)nc(C2CC2)n1 [Compound 336, 2-cyclopropyl-6-methyl-N-(3-(3-((4-methyl-4H-1,2,4-triazol-3-yl)methyl)oxetan-3-yl)phenyl)pyrimidine-4-carboxamide]	D (D indicates 1.00-1.50)	D (D indicates 1.00-1.50)	D (D indicates 1.00-1.50)	D (D indicates 1.00-1.50)	C (C indicates 1.51-2.00)	D (D indicates 1.00-1.50)	–	–	–	–	C (C indicates 1.51-2.00)	D (D indicates 1.00-1.50)
CN1CC2CCC(C1)N2c1cc2c(c(C(F)(F)F)c1)CN(c1cccc(C3(Cc4nncn4C)COC3)c1)C2=O [Compound 386, 2-(3-(3-((4-Methyl-4H-1,2,4-triazol-3-yl)methyl)oxetan-3-yl)phenyl)-6-(3-methyl-3,8-diazabicyclo[3.2.1]octan-8-yl)-4-(trifluoromethyl)isoindolin-1-one]	–	–	–	–	–	–	–	–	–	–	C (C indicates 1.51-2.00)	D (D indicates 1.00-1.50)
Cn1cnnc1CC1(c2cccc(N3Cc4c(cc(CN5CCC(C)(F)CC5)cc4C(F)(F)F)C3=O)c2)COC1 [Example 620, 6-((4-fluoro-4-methylpiperidin-1-yl)methyl)-2-(3-(3-((4-methyl-4H-1,2,4-triazol-3-yl)methyl)oxetan-3-yl)phenyl)-4-(trifluoromethyl)isoindolin-1-one]	–	–	D (D indicates 1.00-1.50)	D (D indicates 1.00-1.50)	D (D indicates 1.00-1.50)	E (E indicates <1.00)	–	–	–	–	D (D indicates 1.00-1.50)	E (E indicates <1.00)
C[C@@H]1CN(Cc2cc3c(c(C(F)(F)F)c2)CN(c2cccc(C4(Cc5nncn5C)COC4)c2)C3=O)CCO1 [Example 663b, (R)-2-(3-(3-((4-methyl-4H-1,2,4-triazol-3-yl)methyl)oxetan-3-yl)phenyl)-6-((2-methylmorpholino)methyl)-4-(trifluoromethyl)isoindolin-1-one]	D (D indicates 1.00-1.50)	D (D indicates 1.00-1.50)	–	–	–	–	–	–	–	–	C (C indicates 1.51-2.00)	D (D indicates 1.00-1.50)
Cn1cnnc1[C@@H](F)C1(c2cccc(N3Cc4c(cc(CN5CCC(F)CC5)cc4C(F)(F)F)C3=O)c2)COC1 [Example 670a, (S)-2-(3-(3-(fluoro(4-methyl-4H-1,2,4-triazol-3-yl)methyl)oxetan-3-yl)phenyl)-6-((4-fluoropiperidin-1-yl)methyl)-4-(trifluoromethyl)isoindolin-1-one]	–	–	–	–	–	–	–	–	–	–	B (B indicates 2.01-2.50)	D (D indicates 1.00-1.50)
Cn1cnnc1[C@H](F)C1(c2cccc(N3Cc4c(cc(CN5CCC(F)CC5)cc4C(F)(F)F)C3=O)c2)COC1 [Example 670b, (R)-2-(3-(3-(fluoro(4-methyl-4H-1,2,4-triazol-3-yl)methyl)oxetan-3-yl)phenyl)-6-((4-fluoropiperidin-1-yl)methyl)-4-(trifluoromethyl)isoindolin-1-one]	–	–	–	–	–	–	–	–	–	–	C (C indicates 1.51-2.00)	D (D indicates 1.00-1.50)
